Tests used:
[1] = molecular target: T1, full-length purified human estrogen receptor ERα (Homo sapiens, UniProt P03372); test: ERα competitive radiometric binding assay; settings: RBA = IC50[estradiol]/IC50[compound] × 100, estradiol = 100; 2 nM [3H]-estradiol tracer, 18–24 h at 0 °C
T1 construct: full-length purified human estrogen receptors ERα and ERβ
T1 sequence (P03372 1-595): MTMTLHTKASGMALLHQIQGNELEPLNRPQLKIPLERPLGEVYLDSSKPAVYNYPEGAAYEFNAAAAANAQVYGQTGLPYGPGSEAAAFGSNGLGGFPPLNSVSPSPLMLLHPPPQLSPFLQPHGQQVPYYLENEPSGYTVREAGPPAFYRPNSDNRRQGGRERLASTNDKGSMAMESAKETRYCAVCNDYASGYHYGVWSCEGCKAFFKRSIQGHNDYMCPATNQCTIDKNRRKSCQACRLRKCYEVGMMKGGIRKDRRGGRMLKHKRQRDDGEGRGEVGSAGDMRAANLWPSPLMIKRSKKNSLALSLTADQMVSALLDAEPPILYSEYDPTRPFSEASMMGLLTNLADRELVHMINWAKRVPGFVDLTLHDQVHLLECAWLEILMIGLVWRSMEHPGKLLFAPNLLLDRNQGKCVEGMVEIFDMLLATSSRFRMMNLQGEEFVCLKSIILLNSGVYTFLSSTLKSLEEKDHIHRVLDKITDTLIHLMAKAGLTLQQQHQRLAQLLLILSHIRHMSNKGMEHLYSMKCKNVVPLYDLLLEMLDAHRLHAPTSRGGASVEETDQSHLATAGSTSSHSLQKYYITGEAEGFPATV
Experimental: The receptors and ligands were incubated for 18–24 h at 0 °C and then the receptor–ligand complexes separated using hydroxyapatite (BioRad, Hercules, CA, USA).

[2] = molecular target: T2, full-length purified human estrogen receptor ERβ (Homo sapiens, UniProt Q92731); test: ERβ competitive radiometric binding assay; settings: RBA = IC50[estradiol]/IC50[compound] × 100, estradiol = 100; 2 nM [3H]-estradiol tracer, 18–24 h at 0 °C
T2 construct: full-length purified human estrogen receptors ERα and ERβ
Experimental: . The receptors and ligands were incubated for 18–24 h at 0 °C and then the receptor–ligand complexes separated using hydroxyapatite (BioRad, Hercules, CA, USA). […]

[3] = test system: HepG2 cells; test: MTT cell viability assay, HepG2; format: cell-based, human; settings: 24 h exposure, vs vehicle-treated control cells
Experimental: For cell viability experiments using the MTT assay, mouse C2C12 skeletal muscle myoblasts (ATCC; Manassas, VA, USA) and the human hepatocyte cell line, HepG2 (ATCC; Manassas, VA, USA), were plated in 96-well plates at a density of 4,000 to 10,000 cells per well in 200 μL of DMEM medium supplemented with 10% FBS, 1% glutamine, 1 mM of sodium pyruvate, 100 units/mL penicillin, and 100 μg/mL streptomycin. After incubating 48 h, the medium was removed and the cells were treated with fresh solutions of various concentrations of XN, DXN or TXN in phenol red-free DMEM plus supplements. The final concentrations of XN, DXN, TXN were 1, 2, 5, 8, 10, 25, or 50 μM, in quadruplicate wells. The plates were then incubated for 1 h (for C2C12) or 24 h for HepG2. After removing the medium, the cells were incubated for 2 h with a 0.5 mg/mL solution of MTT in phenol red-free culture medium. After removing the medium and adding a solution of acidified isopropanol to each well, the absorbance of each well was measured at 570 nm by using a spectrometer (SpectraMax 190, Molecular Devices, Sunnyvale, CA, USA). Cell viability of compound-treated cells was calculated as % absorbance of vehicle-treated control cells (Supplementary Fig. S1a and S1b).

[4] = test system: C57BL/6J mice fed a high-fat diet; test: Water maze: spatial learning and memory; format: in vivo, mouse; settings: for Reached platform location faster than control (latency to first cross), probe trial: probe trial 24 h after last hidden platform trial; for Number of mice that spent more time in the correct quadrant than in any other quadrant / Number of mice that reached the platform location within 35 seconds: probe trial; for Number of mice that spent more time in the correct quadrant than in any other quadrant: control 3 out of 12; for Number of mice that reached the platform location within 35 seconds: control 5 out of 12; for Number of mice that reached the hidden platform at least twice within 50 seconds: trials 6 to 8, control 3 out of 12
Experimental: After 13 weeks of feeding the experimental diets, general task learning, spatial learning and memory, and long-term spatial memory retention were tested using the water maze, as previously described[97],[98]. Briefly, the water maze consisted of a circular pool, filled with water (24 °C) made opaque white with non-toxic tempera paint (Prang, Dixon Ticonderoga Company, Heathrow, FL, USA). Spatial cues consisted of figures of geometric shape and other items such as toys and pieces of cloth. The cues were placed on the walls of both the room and the sides of the tank and were present throughout all water maze trials. All trials consisted of a maximum of 60 s in the water searching for the platform and 10 s on the platform. […] Trials on the same day were separated by 10 min. Mice were first trained to locate a visible escape platform (plexiglass circle, 12 cm diameter) submerged 2 cm below the surface of the water, by the use of a cue (a colored cylinder, 2.5 cm radius, 8 cm height) during the visible platform trials (1–2). The location of the platform during visible platform trials was moved between trials to avoid procedural biases in task learning to a specific quadrant. Subsequent to the visible platform training, mice were trained to locate the platform without a visible cue during the hidden platform trials (3–8), which required the mice to rely on extra-maze cues for spatial reference and orientation. To analyze learning curves, time to reach the platform (latency) and swim speeds were assessed. Spatial memory retention was assessed 24 h following the conclusion of the eighth trial of hidden platform training in the probe trial (no platform). For data analysis, the pool was divided conceptually into four quadrants. Time spent searching in the target quadrant compared to the time spent in the three non-target quadrants and the latency to the first crossing of the platform location were analyzed. Following the probe trial, mice were administered two additional visible platform trials. Thigmotaxis, a tendency to remain close the walls, is commonly used as an index of anxiety in mice. For thigmotaxis, we analyzed the time (%) mice spent swimming in the outer part of the pool (<10 cm from edge of pool) during the visible trials. Water maze performance was tracked and analyzed using Ethovision software set at 6 samples/s (Noldus Information Technology, Leesburg, VA). Heat map images were generated using EthoVision Heatmap Generator software and representative images were selected from mice closest to the group mean values for time spent in the quadrant target.
Water maze learning curves: data, except for spatial learning, were analyzed using a one-way ANOVA for single measures within animals and a repeated-measures-in-time design ANOVA for repeated measures within animals. To evaluate spatial learning, we first compared at each session the control versus each XN metabolite group. For further analysis of spatial learning, the first 3 sessions were used for training of spatial learning and the last 3 session for spatial learning. […] To show spatial learning, mice had to reach the platform during the last 3 evaluation sessions at least twice within 50 seconds. Fisher’s exact test was used to compare control versus each XN metabolite group.

T2 sequence (Q92731 whole entry): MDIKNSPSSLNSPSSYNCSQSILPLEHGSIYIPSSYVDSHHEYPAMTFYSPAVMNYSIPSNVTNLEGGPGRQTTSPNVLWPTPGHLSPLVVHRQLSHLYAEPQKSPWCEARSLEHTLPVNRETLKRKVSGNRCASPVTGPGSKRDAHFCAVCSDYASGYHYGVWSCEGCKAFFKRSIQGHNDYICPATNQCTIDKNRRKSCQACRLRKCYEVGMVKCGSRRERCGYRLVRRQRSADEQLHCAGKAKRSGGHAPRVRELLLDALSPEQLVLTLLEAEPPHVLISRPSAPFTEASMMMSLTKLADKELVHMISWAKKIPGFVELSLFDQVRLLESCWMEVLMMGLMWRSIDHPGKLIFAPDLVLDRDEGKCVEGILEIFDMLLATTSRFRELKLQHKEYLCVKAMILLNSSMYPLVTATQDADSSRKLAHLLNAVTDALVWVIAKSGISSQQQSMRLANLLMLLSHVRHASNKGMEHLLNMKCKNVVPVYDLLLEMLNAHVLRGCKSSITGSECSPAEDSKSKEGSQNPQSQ

| Compound | RBA ERα (relative binding affinity) [1] | RBA ERβ (relative binding affinity) [2] | HepG2 cell viability (MTT), 1–25 µM [3] | Slower swim speed versus HFD only ([4]; during the hidden platform trials) [%] | Reached hidden platform faster than HFD only, average of trials 6 to 8 ([4]; hidden platform) [%] | Reached platform location faster than control (latency to first cross), probe trial [4] [%] | Number of mice that spent more time in the correct quadrant than in any other quadrant [4] | Number of mice that reached the platform location within 35 seconds [4] | Number of mice that reached the hidden platform at least twice within 50 seconds [4] | Reached hidden platform faster than HFD only, trial 6 ([4]; hidden platform) [%] | Reached hidden platform faster than HFD only, trial 8 ([4]; hidden platform) [%] | Reached hidden platform faster than HFD only, first hidden platform trial (trial #3) ([4]; hidden platform trial 3) [%] | Reached visible platform faster than control, first trial ([4]; visible platform trial 1, HFD mice, 30 mg/kg/day, 13 weeks) [%] | More time in the correct (Target) quadrant than control ([4]; 60-s probe trial) [%] | Reached hidden platform faster than HFD only, trial 7 ([4]; hidden platform) [%] |
| --- | --- | --- | --- | --- | --- | --- | --- | --- | --- | --- | --- | --- | --- | --- | --- |
| COc1cc(O)c(CC=C(C)C)c(O)c1C(=O)CCc1ccc(O)cc1 [DXN, α,β-Dihydroxanthohumol] | 0.0029 ± 0.0007 | 0.009 ± 0.002 | did not alter cell viability | 10 | 28 | 58 | 9 out of 12 | all but one | 9 out of 12 |  |  |  |  |  |  |
| COc1cc(O)c(CCC(C)C)c(O)c1C(=O)CCc1ccc(O)cc1 [TXN, tetrahydroxanthohumol] | 0.0033 ± 0.001 | 0.009 ± 0.002 | did not alter cell viability |  | 45 | 45 | all but one | all but one | all | 44 | 35 | 18 | 24 |  |  |
| COc1cc(O)c(CC=C(C)C)c(O)c1C(=O)/C=C/c1ccc(O)cc1 [XN, 3′-[3,3-dimethylallyl]-2′,4′,4-trihydroxy-6′-methoxychalcone] | 0.0021 ± 0.0003 | 0.003 ± 0.001 | did not alter cell viability |  |  | 45 | all but one | all but one | all | 47 | 49 |  |  | 6.8 | 43 |

Source: paper PMC5766630, “Non-estrogenic Xanthohumol Derivatives Mitigate Insulin Resistance and Cognitive Impairment in High-Fat Diet-induced Obese Mice” (Scientific Reports, 2018)
